Molecules are shown by their SMILES.

T1 sequence (P41597 whole entry): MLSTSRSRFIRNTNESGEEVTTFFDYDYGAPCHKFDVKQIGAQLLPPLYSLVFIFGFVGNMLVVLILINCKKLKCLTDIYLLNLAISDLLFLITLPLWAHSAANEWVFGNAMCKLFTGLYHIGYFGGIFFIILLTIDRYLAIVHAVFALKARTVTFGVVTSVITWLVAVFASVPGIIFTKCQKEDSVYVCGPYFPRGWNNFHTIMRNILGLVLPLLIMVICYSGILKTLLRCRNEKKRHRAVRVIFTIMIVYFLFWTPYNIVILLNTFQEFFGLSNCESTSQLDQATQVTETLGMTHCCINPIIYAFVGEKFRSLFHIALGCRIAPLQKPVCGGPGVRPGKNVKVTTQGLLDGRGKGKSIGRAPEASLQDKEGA

The experiment concerns the target T1, CCR2 (Homo sapiens, UniProt P41597).
T1 construct: Membranes were prepared from THP-1 cells; endogenous in cells; host or cells: THP-1 (human acute monocytic leukaemia cells), membrane preparation
Briefly: CCR2 receptor membrane binding assay ([125I]MCP-1, THP-1 cell membranes, SPA beads). The note with it: THP-1 membranes, [125I]MCP-1, bound radioactivity determined after 8 h; read-out: hKi. Here is the method:
The above exemplary substances have been tested for binding to CCR2 using a binding assay as outlined herein below:
THP-1 cells (human acute monocytic leukaemia cells) were cultured under standardized conditions at 37° C. and 5% CO2 in a humidified incubator. THP-1 cells were cultivated in RPMI 1640 medium (Gibco 21875) containing 1% MEM-NEAA (Gibso 11140) 2 mM L-glutamine, 1.5 g/L sodium bicarbonate, 4.5 g/L glucose, 10 mM HEPES and 1.0 mM sodium pyruvate, 90%; 10% fetal calf serum (FCS Gibco 10500-064).
Membranes were prepared from THP-1 cells. THP-1 cells were centrifuged at 300×g at 4° C. for 10 min. The cell pellet was resuspended in Phosphate Buffer Saline (PBS, including 10 μM Pefabloc and a protease inhibitor mix ‘complete’, Boehringer Mannheim (1 tablet/50 ml)), to a concentration of […]. The membrane preparation was performed by disrupting the cells by nitrogen […] (at 50 bar, for 1 h) in a “Nitrogen Bombe” (Parr Instrument). Cell debris was removed by centrifugation (800×g at 4° C., 1 min). The supernatant was centrifuged at 80000×g, 4° C. for 30 min to sediment the cell membranes. Usually 50 mg of protein (Bradford assay) were yielded from 1×10E9 cells. The membranes were resuspended in 25 mM HEPES, 25 mM MgCl2, 1 mM CaCl2, 10% Glycerine for storage in aliquots at −80° C. in 25 mM HEPES, 25 mM MgCl2, 1 mM CaCl2, 10% Glycerine and stored at −80° C.
Receptor Membrane Binding Assay:
Perkin Elmer NEX 332 Jod 125 MCP-1, Stock: 2200 Ci/mmol solved in […] assay buffer, stored at −20° C. THP-1 membrane were adjusted with 25 mM HEPES, pH 7.2; 5 mM MgCl2; 0.5 mM CaCl2; 0.2% BSA assay buffer to a concentration of 2.5 μg/15 μl. Amersham Biosciences PVT-WGA Beads (RPNQ0001) were adjusted with assay buffer to a concentration of 0.24 mg/30 μl. For preparation of the membrane-bead-suspension membranes and beads were incubated for 30 min at RT under rotation (60 rpm) with a ratio of 1:2. Test compounds dissolved in 100% DMSO to a concentration of 10 mM and are further diluted with 100% DMSO to 1 mM. All additional compound dilutions were obtained with assay buffer, final 1% DMSO. Compounds, membrane-bead-suspension and [^125I]MCP-1 (ca. 25000 cpm/10 μl) were incubated. Bound radioactivity was determined by scintillation counter after 8 h. Determination of affinity of test compounds (dissociation constant hKi) is calculated by iterative fitting of experimental data using the “easy sys” program, which is based on law of mass action (Schittkowski K. (1994), Numerische Mathematik, Vol. 68, 129-142).
On to `COC1COCCC1NC1CCN(C(=O)c2ncnc(N3CCc4ccccc4CC3)c2C)CC1` (stereo not shown) [Example 54], for which the Ki turned out to be 636 nM.
As for `COC1COCCC1NC1CCN(C(=O)c2ncnc(N3CCc4ccc(C#N)cc4C3)c2C)CC1` (stereo not shown) [Example 55], the Ki was 235 nM.
The value for `COC1COCCC1NC1CCN(C(=O)c2ncnc(N3CCN(c4ccc(C(F)(F)F)cn4)CC3)c2C)CC1` (stereo not shown) [Example 56] was 1020 nM.
The value for `COC1COCCC1NC1CCN(C(=O)c2ncnc(N3CCN(c4cccc(C(F)(F)F)c4)CC3)c2C)CC1` (stereo not shown) [Example 57] was 189 nM.
The value for `COC1COCCC1NC1CCN(C(=O)c2ncnc(N3CCCc4ccccc4C3)c2C)CC1` (stereo not shown) [Example 58] was 4240 nM.
Turning to `COC1COCCC1NC1CCN(C(=O)c2ncnc(N3CCc4ccc(C)cc4C3)c2C)CC1` (stereo not shown) [Example 59], the Ki was determined as 42 nM.
`COC1COCCC1NC1CCN(C(=O)c2ncnc(N3CCc4ccc(C(F)(F)F)cc4C3)c2C)CC1` (stereo not shown) [Example 60]: the Ki is 5 nM.
Consider `COC1COCCC1NC1CCN(C(=O)c2ncnc(N3CCc4ncc(C(F)(F)F)cc4C3)c2C)CC1` (stereo not shown) [Example 61], for which the Ki is 309 nM.
As to `COC1COCCC1NC1CCN(C(=O)c2ncnc(N3CCC4(CCc5ccccc54)CC3)c2C)CC1` (stereo not shown) [Example 62], the Ki is 590 nM.
The value for `CO[C@@H]1COCC[C@@H]1NC1CCN(C(=O)c2cc(N3CCc4ccc(C(F)(F)F)cc4C3)ncn2)CC1` [Example 62a] was 566 nM.
The value for `COC1COCCC1NC1CCN(C(=O)c2ncnc(N3CCN(c4ccccc4Cl)CC3)c2C)CC1` (stereo not shown) [Example 62aa] was 89 nM; that for `COC1COCCC1NC1CCN(C(=O)c2ncnc(N3CCC4(CCc5cc(Br)ccc5O4)CC3)c2C)CC1` (stereo not shown) [Example 62ab] was 16 nM.
Take `COC1COCCC1NC1CCN(C(=O)c2ncnc(N3CCn4cc(C(F)(F)F)nc4C3)c2C)CC1` (stereo not shown) [Example 62ac]: the Ki turned out to be 1000 nM.
As for `COC1COCCC1NC1CCN(C(=O)c2ncnc(N3CCN(c4ccc5c(c4)OCCO5)CC3)c2C)CC1` (stereo not shown) [Example 62ad], the Ki was found to be 336 nM.
The value for `COc1cc(N2CCN(c3ncnc(C(=O)N4CCC(NC5CCOCC5OC)CC4)c3C)CC2)cc(C(F)(F)F)c1` (stereo not shown) [Example 62ae] was 49 nM.
With `COC1COCCC1NC1CCN(C(=O)c2ncnc(N3CCN(c4cccc(C)c4)CC3)c2C)CC1` (stereo not shown) [Example 62af], the Ki was found to be 257 nM.
In the case of `COC1COCCC1NC1CCN(C(=O)c2ncnc(N3CCN(c4ccc(Cl)cc4Cl)CC3)c2C)CC1` (stereo not shown) [Example 62ag], the Ki was 40 nM.
Consider `COC1COCCC1NC1CCN(C(=O)c2ncnc(N3CCN(c4cccc(C)c4C)CC3)c2C)CC1` (stereo not shown) [Example 62ah], for which the Ki amounted to 41 nM.
The value for `COC1COCCC1NC1CCN(C(=O)c2ncnc(N3CCN(c4c(C)cccc4C)CC3)c2C)CC1` (stereo not shown) [Example 62ai] was 34 nM; that for `COC1COCCC1NC1CCN(C(=O)c2ncnc(N3CCN(c4c(Cl)cncc4Cl)CC3)c2C)CC1` (stereo not shown) [Example 62aj] was 35 nM; that for `COC1COCCC1NC1CCN(C(=O)c2ncnc(N3CCN(c4cc(F)cc(F)c4)CC3)c2C)CC1` (stereo not shown) [Example 62ak] was 145 nM.
In the case of `COC1COCCC1NC1CCN(C(=O)c2ncnc(N3CCN(c4ccc(Cl)c(Cl)c4)CC3)c2C)CC1` (stereo not shown) [Example 62al] it was 128 nM; in that of `CO[C@@H]1COCC[C@@H]1NC1CCN(C(=O)c2ncnc(N3CCC4(CCc5cc(Br)ccc5O4)CC3)c2C)CC1` [Example 62am], 12 nM; in that of `CO[C@@H]1COCC[C@@H]1NC1CCN(C(=O)c2ncnc(N3CCC4(CCc5cc(Cl)ccc5O4)CC3)c2C)CC1` [Example 62an], 12 nM.
Turning to `COC1COCCC1NC1CCN(C(=O)c2ncnc(N3CC4CC4(c4cccc(C(F)(F)F)c4)C3)c2C)CC1` (stereo not shown) [Example 62b], the Ki is 357 nM.
As for `COC1COCCC1NC1CCN(C(=O)c2ncnc(N3CC4CC4(c4cc(C(F)(F)F)cc(C(F)(F)F)c4)C3)c2C)CC1` (stereo not shown) [Example 62c], the Ki was found to be 351 nM.
In the case of `COC1COCCC1NC1CCN(C(=O)c2ncnc(N3CCCN(c4ccccc4C)CC3)c2C)CC1` (stereo not shown) [Example 62d] it was 305 nM; in that of `COC1COCCC1NC1CCN(C(=O)c2ncnc(N3CCC(c4ccccc4Cl)C3)c2C)CC1` (stereo not shown) [Example 62e], 419 nM; in that of `COC1COCCC1NC1CCN(C(=O)c2ncnc(N3CCCC4(CCCCC4)C3)c2C)CC1` (stereo not shown) [Example 62f], 9560 nM.
As for `COC1COCCC1NC1CCN(C(=O)c2ncnc(N3CCC4(CC3)CC(=O)c3cc(F)ccc3O4)c2C)CC1` (stereo not shown) [Example 62g], the Ki is 538 nM.
For the molecule `COC1COCCC1NC1CCN(C(=O)c2ncnc(N3CCC4(CC3)CC(=O)c3ccccc3O4)c2C)CC1` (stereo not shown) [Example 62h], the Ki was 983 nM.
The value for `COC1COCCC1NC1CCN(C(=O)c2ncnc(N3CCC4(CC3)CC(=O)c3cc(Br)ccc3O4)c2C)CC1` (stereo not shown) [Example 62i] was 184 nM; that for `COC1COCCC1NC1CCN(C(=O)c2ncnc(N3CCCN(c4ccc(Cl)cc4)CC3)c2C)CC1` (stereo not shown) [Example 62j] was 516 nM.
Regarding `COC1COCCC1NC1CCN(C(=O)c2ncnc(N3CCc4ccc(C(C)C)cc4C3)c2C)CC1` (stereo not shown) [Example 62k], the Ki came to 12 nM.
As for `COC1COCCC1NC1CCN(C(=O)c2ncnc(N3Cc4ccccc4C4(CC4)C3)c2C)CC1` (stereo not shown) [Example 62l], the Ki stood at 1380 nM.
For the molecule `COC1COCCC1NC1CCN(C(=O)c2ncnc(N3CCN(c4ccccc4C)CC3)c2C)CC1` (stereo not shown) [Example 62m], the Ki amounted to 300 nM.
The value for `COC1COCCC1NC1CCN(C(=O)c2ncnc(N3CCCC(c4ccccc4)CC3)c2C)CC1` (stereo not shown) [Example 62n] was 192 nM; that for `COC1COCCC1NC1CCN(C(=O)c2ncnc(N3CCC4CC4(c4ccc(Br)cc4)C3)c2C)CC1` (stereo not shown) [Example 62o] was 1080 nM; that for `COC1COCCC1NC1CCN(C(=O)c2ncnc(N3CCN(c4ccc(C(F)(F)F)cc4)CC3)c2C)CC1` (stereo not shown) [Example 62p] was 119 nM.
The value for `COC1COCCC1NC1CCN(C(=O)c2ncnc(N3CCN(c4ccc5c(c4)OCO5)CC3)c2C)CC1` (stereo not shown) [Example 62q] was 780 nM; that for `COC1COCCC1NC1CCN(C(=O)c2ncnc(N3CCN(c4ncnc5scc(C)c45)CC3)c2C)CC1` (stereo not shown) [Example 62r] was 411 nM.
Turning to `COC1COCCC1NC1CCN(C(=O)c2ncnc(N3CCn4c(-c5ccccc5)cnc4C3)c2C)CC1` (stereo not shown) [Example 62s], the Ki was 5140 nM.
On to `COC1COCCC1NC1CCN(C(=O)c2ncnc(N3CCN(c4cc(Cl)cc(Cl)c4)CC3)c2C)CC1` (stereo not shown) [Example 62t], for which the Ki amounted to 17 nM.
The value for `COC1COCCC1NC1CCN(C(=O)c2ncnc(N3CCN(c4ccc(F)c(Cl)c4)CC3)c2C)CC1` (stereo not shown) [Example 62u] was 114 nM.
With `COC1COCCC1NC1CCN(C(=O)c2ncnc(N3CCN(c4ccc(Cl)c(C(F)(F)F)c4)CC3)c2C)CC1` (stereo not shown) [Example 62w], the Ki stood at 54 nM.
In the case of `COC1COCCC1NC1CCN(C(=O)c2ncnc(N3CCN(c4cccc(Cl)c4Cl)CC3)c2C)CC1` (stereo not shown) [Example 62x] it was 18 nM.
The value for `COC1COCCC1NC1CCN(C(=O)c2ncnc(N3CCN(c4ccc(Cl)cc4C)CC3)c2C)CC1` (stereo not shown) [Example 62y] was 12 nM; that for `COC1COCCC1NC1CCN(C(=O)c2ncnc(N3CCN(c4ccccc4C(F)(F)F)CC3)c2C)CC1` (stereo not shown) [Example 62z] was 30 nM; that for `CO[C@@H]1COCC[C@@H]1NC1CCN(C(=O)c2ncnc(N3CCc4ccc(C(F)(F)F)cc4C3)c2C)CC1` [Example 63] was 4 nM.

(Values after patent publication US8877745B2, “CCR2 receptor antagonists, method for producing the same, and use thereof as medicaments” (Boehringer Ingelheim International GmbH, priority 2010, dated 2014).)
